The values that follow come from patent US7196110B2, “N-substituted tricyclic 3-aminopyrazoles as inhibitors for the treatment of cell proliferative disorders” (Janssen Phamaceutica N.V., priority 2002, dated 2007).

The target of experiment [1] is T1, PDGF-receptor beta enzyme comprising the tyrosine kinase domain (Homo sapiens, UniProt P09619).
T1 construct: from amino acid 545 to 1106 of GenBank Access NO: AAA36427
Kind of experiment: Inhibition of PDGF-receptor kinase activity (cell-free, PLC1 peptide, 33P Flashplate). Type of experiment: biochemical. The note with it: PDGF-R kinase activity; for inhibition at 10 µM: compound at 10 uM, read-out: Percent Inhibition @ 10 uM; for IC50: read-out: IC50. In short, it runs like this: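 Recombinant kinase domain (aa 545–1106) phosphorylated a biotinylated PLC1 peptide with 5 μM ATP plus 33P-γ-ATP, in Tris pH 8, MgCl2, Na3VO4 and 1 mM DTT, for 60 min at 30 °C. Retained 33P was counted after washing. IC50 is the concentration halving activity versus no-inhibitor reactions.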

The next experiment addresses c-Abl kinase (Abelson murine leukemia virus, UniProt P00521). Briefly: Inhibition of c-Abl kinase activity (cell-free, Abl peptide substrate, 33P Flashplate). Type of experiment: biochemical. The note with it: IC50 for the c-Abl kinase activity.
Another experiment concerns T47D (breast). Kind of experiment: Anti-cell proliferation in tumor cells (14C-thymidine incorporation), T47D. The note with it: Homo sapiens, read-out: IC50 on cell proliferation, T47D. The class given is cell-based. As for the experimental part:
The effect of compounds of the invention on cell proliferation in various tumor cells was tested based on incorporation of ^14C-thymidine into DNA of cells.
Similar to those described above in 3a, except that different cells, cell growth medium, and growth supplements were used. Human tumor cell lines derived from various human tissue origins (LoVo from colon, H460 from lung, T47D from breast, PC3 from prostate, A375 from melanoma, AsPC1 from pancreas) were obtained from the American Type Culture Collection (ATCC) and cultured under specified conditions required for each cell type, as provided by ATCC. Complete medium was obtained from Cellgro: Iscove's medium with 10% Fetal Bovine Serium (FBS) (Mediatech, Inc., Herndon, Va. 20171, Cat. No. 10-016-CV).
Tumor cells were seeded at approx. 3000–8000 cells per well in a volume of 100 μl of complete medium. Cells were grown for 24 hours in complete medium, and 1 μl of test compound was serially diluted in 100% DMSO and added to each well. For maximum growth control wells, only 1 μl of 100% DMSO was added. After 24 hours incubation, 20 μl of ^14C-thymidine master mix was added to each well and the ^14C-thymidine master mix was pepared according to the following regimen:
Cells were incubated for an additional 24 hours at 37° C. in medium containing test compound and ^14C-thymidine. Then, the reaction mixture was discarded and the plate was washed 2 times each with 200 μl PBS. Subsequently, each well on the plate was filled with 200 μl of PBS. The top of the plate was sealed with transparent plate sealer and white plate backing sealers were applied to the bottom of plates. The retained ^14C inside each well was measured using a Packard TopCount.
In order to test the potency of inhibition of the present compound, IC50 of an individual compound on the inhibition of tumor cell line proliferation was measured using the above procedure. As used herein, said IC50 refers to the concentration of the test compound at which the amount of tumor cell proliferation is reduced by one-half as compared to the maximum growth control wells without the compound.
(In general: Dividing cells build labelled thymidine or BrdU into new DNA.)

A word on the inhibition: it is the drop in the measured response relative to a control, in per cent.

T1 sequence (P09619 545-1106): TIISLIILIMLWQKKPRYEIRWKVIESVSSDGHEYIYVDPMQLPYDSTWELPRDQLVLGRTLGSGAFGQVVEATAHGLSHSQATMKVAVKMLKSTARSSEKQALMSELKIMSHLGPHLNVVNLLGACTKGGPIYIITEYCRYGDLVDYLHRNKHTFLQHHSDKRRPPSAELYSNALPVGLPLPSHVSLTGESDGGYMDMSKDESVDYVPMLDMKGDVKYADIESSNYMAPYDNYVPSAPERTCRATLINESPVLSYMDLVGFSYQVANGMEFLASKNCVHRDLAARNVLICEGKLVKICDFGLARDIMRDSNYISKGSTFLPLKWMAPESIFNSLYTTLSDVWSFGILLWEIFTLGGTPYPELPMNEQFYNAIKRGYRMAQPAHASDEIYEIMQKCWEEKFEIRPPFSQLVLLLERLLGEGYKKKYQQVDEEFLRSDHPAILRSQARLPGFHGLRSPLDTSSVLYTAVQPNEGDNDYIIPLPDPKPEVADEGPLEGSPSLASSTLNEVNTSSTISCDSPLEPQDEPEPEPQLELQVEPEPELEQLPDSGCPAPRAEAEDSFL
Chain of c-Abl kinase (P00521 115-385): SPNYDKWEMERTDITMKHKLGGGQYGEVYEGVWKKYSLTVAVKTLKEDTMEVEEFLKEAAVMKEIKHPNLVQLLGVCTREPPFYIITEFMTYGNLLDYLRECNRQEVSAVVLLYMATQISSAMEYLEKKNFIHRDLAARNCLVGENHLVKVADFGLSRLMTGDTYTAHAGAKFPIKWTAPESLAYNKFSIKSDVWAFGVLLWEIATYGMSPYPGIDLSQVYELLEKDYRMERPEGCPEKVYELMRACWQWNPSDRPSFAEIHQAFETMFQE

Turning to `COc1ccc(Nc2[nH]nc3c2Cc2ccc(C)cc2-3)cc1Cl` [Compound 309, (3-Chloro-4-methoxy-phenyl)-(7-methyl-2,4-dihydro-indeno[1,2-c]pyrazol-3-yl)-amine], in experiment [1], the inhibition at 10 µM is 92.5% and the IC50 was determined as 30.2 nM. The IC50 on c-Abl kinase was 822 nM.

For `COc1cc2c(cc1OC)-c1n[nH]c(Nc3cccc(Cl)c3)c1C2` [Compound 4, (3-Chloro-phenyl)-(6,7-dimethoxy-2,4-dihydro-indeno[1,2-c]pyrazol-3-yl)-amine], the inhibition at 10 µM in experiment [1] came to 90%. For the same molecule, the IC50 with T47D (breast) worked out at 30 nM.

With `COc1cc2c(cc1OC)-c1n[nH]c(Nc3ccc(F)cc3)c1C2` [Compound 13, (6,7-Dimethoxy-2,4-dihydro-indeno[1,2-c]pyrazol-3-yl)-(4-fluoro-phenyl)-amine], the inhibition at 10 µM in experiment [1] was 91%. Further, the IC50 turned out to be 6.5 nM in experiment [1] and 173 nM at c-Abl kinase.

On to `Fc1ccc2c(c1)-c1n[nH]c(Nc3ccccc3)c1C2` [Compound 299, (7-Fluoro-2,4-dihydro-indeno[1,2-c]pyrazol-3-yl)-phenyl-amine], for which, in experiment [1], the inhibition at 10 µM was 80% and the IC50 was 19.3 nM. The IC50 on c-Abl kinase turned out to be 198 nM.

For the molecule `COc1ccc(OC)c(Nc2[nH]nc3c2Cc2cc(F)ccc2-3)c1` [Compound 203, (2,5-Dimethoxy-phenyl)-(6-fluoro-2,4-dihydro-indeno[1,2-c]pyrazol-3-yl)-amine], in experiment [1], the inhibition at 10 µM is 86% and the IC50 was determined as 16 nM. Also, at c-Abl kinase, the IC50 was determined as 160 nM.

`COc1cc2c(cc1OCC(O)CN1CCCC1)Cc1c-2n[nH]c1Nc1cccc(F)c1` (stereo not shown) [Compound 269, 1-[3-(3-Fluoro-phenylamino)-7-methoxy-2,4-dihydro-indeno[1,2-c]pyrazol-6-yloxy]-3-pyrrolidin-1-yl-propan-2-ol]: the inhibition at 10 µM in experiment [1] is 94%. Further, the IC50 turned out to be 0.591 nM in experiment [1] and 101 nM on c-Abl kinase.

In the case of `CCOc1cc2c(cc1OCC)C(C)c1c-2n[nH]c1Nc1cccc(OC)c1` (stereo not shown) [Compound 348, (6,7-Diethoxy-4-methyl-2,4-dihydro-indeno[1,2-c]pyrazol-3-yl)-(3-methoxy-phenyl)-amine], in experiment [1], the inhibition at 10 µM is 97.5% and the IC50 was 25.3 nM. For the same molecule, the IC50 at c-Abl kinase is 11 nM.

In the case of `Clc1cccc(Cl)c1CNc1[nH]nc2c1Cc1c(OCCCN3CCOCC3)cccc1-2` [Compound 415, (2,6-Dichloro-benzyl)-[5-(3-morpholin-4-yl-propoxy)-2,4-dihydro-indeno[1,2-c]pyrazol-3-yl]-amine], in experiment [1], the inhibition at 10 µM is 98% and the IC50 came to 25.8 nM. For the same molecule, the IC50 on c-Abl kinase was determined as 219 nM.

On to `COc1cc2c(cc1Br)Cc1c-2n[nH]c1Nc1cccc(F)c1` [Compound 369, (6-Bromo-7-methoxy-2,4-dihydro-indeno[1,2-c]pyrazol-3-yl)-(3-fluoro-phenyl)-amine], for which, in experiment [1], the inhibition at 10 µM was determined as 100% and the IC50 turned out to be 18.7 nM. Further, the IC50 on c-Abl kinase is 47 nM.

For the molecule `CN1CCN(c2ccc3c(c2)Cc2c-3n[nH]c2Nc2cccc(Cl)c2)CC1` [Compound 124, (3-Chloro-phenyl)-[6-(4-methyl-piperazin-1-yl)-2,4-dihydro-indeno[1,2-c]pyrazol-3-yl]-amine], the inhibition at 10 µM in experiment [1] was determined as 94%. The IC50 in experiment [1] amounted to 16.3 nM; on c-Abl kinase, 1850 nM.

Consider `COc1cc2c(cc1OC)-c1n[nH]c(Nc3cccc(OCc4ccccc4)c3)c1C2` [Compound 54, (3-Benzyloxy-phenyl)-(6,7-dimethoxy-2,4-dihydro-indeno[1,2-c]pyrazol-3-yl)-amine], for which, in experiment [1], the inhibition at 10 µM stood at 76% and the IC50 is 34.8 nM. The IC50 at c-Abl kinase is 971 nM.

For `Fc1ccc2c(c1)Cc1c-2n[nH]c1Nc1ccc(F)c(Cl)c1` [Compound 202, (3-Chloro-4-fluoro-phenyl)-(6-fluoro-2,4-dihydro-indeno[1,2-c]pyrazol-3-yl)-amine], the inhibition at 10 µM in experiment [1] was determined as 77%. Besides, the IC50 in experiment [1] turned out to be 12.4 nM; at c-Abl kinase it was 2650 nM.

Consider `COc1cc2c(cc1OC)-c1n[nH]c(Nc3cccc(C)c3)c1C2` [Compound 32, (6,7-Dimethoxy-2,4-dihydro-indeno[1,2-c]pyrazol-3-yl)-m-tolyl-amine], for which the inhibition at 10 µM in experiment [1] turned out to be 79%. On c-Abl kinase, the IC50 stood at 2 nM.

For the molecule `COCCCOc1cc2c(cc1OCCCOC)-c1n[nH]c(Nc3cccc(F)c3)c1C2` [Compound 283, [6,7-Bis-(3-methoxy-propoxy)-2,4-dihydroindeno[1,2-c]pyrazol-3-yl]-(3-fluoro-phenyl)-amine], in experiment [1], the inhibition at 10 µM turned out to be 86.5% and the IC50 came out at 4.36 nM. Besides, the IC50 at c-Abl kinase worked out at 340 nM.

As for `COCCCOc1cc2c(cc1OCCCOC)-c1n[nH]c(Nc3cccc(OC)c3)c1C2` [Compound 284, [6,7-Bis-(3-methoxy-propoxy)-2,4-dihydroindeno[1,2-c]pyrazol-3-yl]-(3-methoxy-phenyl)-amine], in experiment [1], the inhibition at 10 µM was 84.6% and the IC50 amounted to 5.09 nM. The IC50 on c-Abl kinase was 69 nM.

Turning to `COc1cccc2c1Cc1c-2n[nH]c1Nc1cccc(F)c1` [Compound 422, (3-Fluoro-phenyl)-(5-methoxy-2,4-dihydro-indeno[1,2-c]pyrazol-3-yl)-amine], in experiment [1], the inhibition at 10 µM was found to be 83% and the IC50 amounted to 29.7 nM. Besides, the IC50 at c-Abl kinase was found to be 3080 nM.

Consider `OCCCOc1cc2c(cc1OCCCO)-c1n[nH]c(Nc3ccc(F)c(Cl)c3)c1C2` [Compound 389, 3-[3-(3-Chloro-4-fluoro-phenylamino)-7-(3-hydroxy-propoxy)-2,4-dihydro-indeno[1,2-c]pyrazol-6-yloxy]-propan-1-ol], for which, in experiment [1], the inhibition at 10 µM was 98% and the IC50 stood at 15.1 nM. The IC50 on c-Abl kinase stood at 17 nM.

Regarding `COc1cc2c(cc1OCCCO)Cc1c-2n[nH]c1NCc1c(F)cccc1F` [Compound 449, 3-[3-(2,6-Difluoro-benzylamino)-7-methoxy-2,4-dihydro-indeno[1,2-c]pyrazol-6-yloxy]-propan-1-ol], in experiment [1], the inhibition at 10 µM is 98.5% and the IC50 is 4.1 nM. Besides, at c-Abl kinase, the IC50 came to 23 nM.

As for `COc1cc2c(cc1OCCCN(C)C)Cc1c-2n[nH]c1Nc1ccc(F)c(Cl)c1` [Compound 200, (3-Chloro-4-fluoro-phenyl)-[6-(3-dimethylamino-propoxy)-7-methoxy-2,4-dihydro-indeno[1,2-c]pyrazol-3-yl]-amine], in experiment [1], the inhibition at 10 µM was determined as 87%. Besides, the IC50 in experiment [1] stood at 2 nM; at c-Abl kinase it was 20 nM.

As for `COc1ccc2c(c1)-c1n[nH]c(Nc3ccc(F)cc3)c1C2` [Compound 170, (4-Fluoro-phenyl)-(7-methoxy-2,4-dihydro-indeno[1,2-c]pyrazol-3-yl)-amine], in experiment [1], the inhibition at 10 µM is 95.5% and the IC50 worked out at 26.8 nM. The IC50 on c-Abl kinase is 75 nM.

As to `Clc1ccc2c(c1)Cc1c-2n[nH]c1Nc1cccnc1` [Compound 188, (6-Chloro-2,4-dihydro-indeno[1,2-c]pyrazol-3-yl)-pyridin-3-yl-amine], in experiment [1], the inhibition at 10 µM came to 74%. Further, the values for the IC50 (in experiment [1]; at c-Abl kinase) were 43.7 nM and 1400 nM, respectively.

Consider `COc1cc2c(cc1OCCCO)Cc1c-2n[nH]c1NCc1c(Cl)cccc1Cl` [Compound 448, 3-[3-(2,6-Dichloro-benzylamino)-7-methoxy-2,4-dihydro-indeno[1,2-c]pyrazol-6-yloxy]-propan-1-ol], for which the inhibition at 10 µM in experiment [1] stood at 100%. Moreover, the figures for the IC50 (in experiment [1]; on c-Abl kinase) were 1.77 nM and 3 nM, respectively.

Consider `CCOc1cc2c(cc1OCC)-c1n[nH]c(NCc3ccccc3Cl)c1C2` [Compound 292, (2-Chloro-benzyl)-(6,7-diethoxy-2,4-dihydro-indeno[1,2-c]pyrazol-3-yl)-amine], for which, in experiment [1], the inhibition at 10 µM stood at 86.5% and the IC50 came out at 18.2 nM. In addition, the IC50 on c-Abl kinase amounted to 1 nM.

For `COC(=O)c1cccc(Nc2[nH]nc3c2Cc2cc(OCCCN4CCOCC4)c(OC)cc2-3)c1` [Compound 133, 3-[7-Methoxy-6-(3-morpholin-4-yl-propoxy)-2,4-dihydro-indeno[1,2-c]pyrazol-3-ylamino]-benzoic acid methyl ester], in experiment [1], the inhibition at 10 µM stood at 53% and the IC50 is 37.9 nM. Besides, the IC50 on c-Abl kinase turned out to be 498 nM.
